Assay results from ChEMBL document CHEMBL1201862, “PubChem BioAssay data set” (2004).
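Exposure lasted 48 hours, with cells grown in 96-well plates and compounds tested at five concentrations. GI50 is the concentration that inhibits growth by half.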 Active and inactive are the calls of the source. Rule as the data show it: active = GI50 up to about 1.1 µM and inactive = higher.

Assays:
Assay in all cases: growth of human tumour cells (NCI), 48 h
OVCAR-4 = tested on: OVCAR-4
HCT-15 = tested on: HCT-15
HCT-116 = tested on: HCT-116
DLD-1 = tested on: DLD-1
A498 = tested on: A498
UO-31 = tested on: UO-31
KM12 = tested on: KM12
M14 = tested on: M14
CCRF-CEM = tested on: CCRF-CEM
SNB-78 = tested on: SNB-78
KM-20L2 = tested on: KM-20L2
SNB-75 = tested on: SNB-75
COLO 205 = tested on: COLO 205
786-0 = tested on: 786-0
NCI-H23 = tested on: NCI-H23
LXFL 529 = tested on: LXFL 529
HCC 2998 = tested on: HCC 2998
LOX IMVI = tested on: LOX IMVI
A549 = tested on: A549
EKVX = tested on: EKVX
SW-620 = tested on: SW-620
HT-29 = tested on: HT-29
K562 = tested on: K562
HOP-62 = tested on: HOP-62
NCI-H460 = tested on: NCI-H460
RXF 393 = tested on: RXF 393
UACC-257 = tested on: UACC-257
SK-OV-3 = tested on: SK-OV-3
SF-539 = tested on: SF-539
SK-MEL-28 = tested on: SK-MEL-28
SF-295 = tested on: SF-295
DMS-273 = tested on: DMS-273
RXF 631 = tested on: RXF 631
NCI-H522 = tested on: NCI-H522
U-251 = tested on: U-251
HOP-92 = tested on: HOP-92
SN12C = tested on: SN12C
DMS-114 = tested on: DMS-114
CAKI-1 = tested on: CAKI-1
Malme-3M = tested on: Malme-3M
SK-MEL-2 = tested on: SK-MEL-2
SF-268 = tested on: SF-268
SNB-19 = tested on: SNB-19
OVCAR-5 = tested on: OVCAR-5
OVCAR-8 = tested on: OVCAR-8
HOP-18 = tested on: HOP-18
IGROV-1 = tested on: IGROV-1
ACHN = tested on: ACHN
OVCAR-3 = tested on: OVCAR-3
UACC-62 = tested on: UACC-62
HL-60 = tested on: HL-60
NCI-H226 = tested on: NCI-H226
M19-MEL = tested on: M19-MEL
TK-10 = tested on: TK-10
RPMI-8226 = tested on: RPMI-8226
MOLT-4 = tested on: MOLT-4
XF498 = tested on: XF498

CCCCCN(CCCCC)C(=O)[C@@H](CCC(=O)OCc1ccccc1)NC(=O)c1cc2ccccc2[nH]1
GI50 (OVCAR-4): > 100 µM (inactive)
GI50 (HCT-15): > 100 µM
GI50 (HCT-116): > 100 µM (inactive)
GI50 (DLD-1): > 100 µM (inactive)
GI50 (A498): > 100 µM (inactive)
GI50 (UO-31): > 100 µM (inactive)
GI50 (KM12): 7.67 µM (inactive)
GI50 (M14): > 100 µM (inactive)
GI50 (CCRF-CEM): > 100 µM (inactive)
GI50 (SNB-78): > 100 µM (inactive)
GI50 (KM-20L2): > 100 µM (inactive)
GI50 (SNB-75): > 100 µM (inactive)
GI50 (COLO 205): 6.18 µM (inactive)
GI50 (786-0): > 100 µM (inactive)
GI50 (NCI-H23): > 100 µM (inactive)
GI50 (LXFL 529): 8.85 µM (inactive)
GI50 (HCC 2998): > 100 µM (inactive)
GI50 (LOX IMVI): > 100 µM (inactive)
GI50 (A549): > 100 µM (inactive)
GI50 (EKVX): > 100 µM (inactive)
GI50 (SW-620): > 100 µM (inactive)
GI50 (HT-29): > 100 µM (inactive)
GI50 (K562): 5.55 µM (inactive)
GI50 (HOP-62): > 100 µM (inactive)
GI50 (NCI-H460): > 100 µM (inactive)
GI50 (RXF 393): > 100 µM (inactive)
GI50 (UACC-257): 39.3 µM (inactive)
GI50 (SK-OV-3): > 100 µM (inactive)
GI50 (SF-539): > 100 µM (inactive)
GI50 (SK-MEL-28): > 100 µM (inactive)
GI50 (SF-295): > 100 µM (inactive)
GI50 (DMS-273): > 100 µM (inactive)
GI50 (RXF 631): > 100 µM (inactive)
GI50 (NCI-H522): > 100 µM (inactive)
GI50 (U-251): 6.22 µM (inactive)
GI50 (HOP-92): > 100 µM (inactive)
GI50 (SN12C): > 100 µM (inactive)
GI50 (DMS-114): > 100 µM (inactive)
GI50 (CAKI-1): 8.81 µM (inactive)
GI50 (Malme-3M): > 100 µM (inactive)
GI50 (SK-MEL-2): > 100 µM (inactive)
GI50 (SF-268): > 100 µM (inactive)
GI50 (SNB-19): > 100 µM (inactive)
GI50 (OVCAR-5): > 100 µM (inactive)
GI50 (OVCAR-8): 6.15 µM (inactive)
GI50 (HOP-18): > 100 µM (inactive)
GI50 (IGROV-1): > 100 µM (inactive)
GI50 (ACHN): > 100 µM (inactive)
GI50 (OVCAR-3): > 100 µM (inactive)
GI50 (UACC-62): 6.78 µM (inactive)

COC(=O)C1=C(C)N(NC(N)=O)C2(N)N(NC(N)=O)C(C)=C(C(=O)OC)C12C(=O)OC (stereo not given)
GI50 (HL-60): > 100 µM (inactive)
GI50 (OVCAR-4): > 100 µM (inactive)
GI50 (HCT-15): > 100 µM
GI50 (NCI-H226): > 100 µM (inactive)
GI50 (HCT-116): > 100 µM (inactive)
GI50 (DLD-1): > 100 µM (inactive)
GI50 (A498): > 100 µM (inactive)
GI50 (UO-31): > 100 µM (inactive)
GI50 (KM12): > 10 µM (inactive)
GI50 (M14): > 100 µM (inactive)
GI50 (CCRF-CEM): > 100 µM (inactive)
GI50 (SNB-78): > 100 µM (inactive)
GI50 (M19-MEL): > 100 µM (inactive)
GI50 (KM-20L2): > 100 µM (inactive)
GI50 (COLO 205): > 100 µM (inactive)
GI50 (786-0): > 100 µM (inactive)
GI50 (NCI-H23): > 100 µM (inactive)
GI50 (LXFL 529): > 100 µM (inactive)
GI50 (HCC 2998): > 100 µM (inactive)
GI50 (LOX IMVI): > 100 µM (inactive)
GI50 (A549): > 100 µM (inactive)
GI50 (TK-10): > 100 µM (inactive)
GI50 (EKVX): > 100 µM (inactive)
GI50 (SW-620): > 100 µM (inactive)
GI50 (HT-29): > 100 µM (inactive)
GI50 (K562): > 100 µM (inactive)
GI50 (HOP-62): > 100 µM (inactive)
GI50 (NCI-H460): > 100 µM (inactive)
GI50 (UACC-257): > 100 µM (inactive)
GI50 (SK-OV-3): > 100 µM (inactive)
GI50 (SF-539): > 100 µM (inactive)
GI50 (SK-MEL-28): > 100 µM (inactive)
GI50 (RPMI-8226): > 100 µM (inactive)
GI50 (SF-295): > 10 µM (inactive)
GI50 (DMS-273): > 100 µM (inactive)
GI50 (RXF 631): > 100 µM (inactive)
GI50 (NCI-H522): > 100 µM (inactive)
GI50 (U-251): > 100 µM (inactive)
GI50 (HOP-92): > 100 µM (inactive)
GI50 (SN12C): > 100 µM (inactive)
GI50 (DMS-114): > 100 µM (inactive)
GI50 (CAKI-1): > 100 µM (inactive)
GI50 (Malme-3M): > 100 µM (inactive)
GI50 (SK-MEL-2): > 100 µM (inactive)
GI50 (MOLT-4): > 100 µM (inactive)
GI50 (SF-268): > 100 µM (inactive)
GI50 (SNB-19): > 100 µM (inactive)
GI50 (OVCAR-5): > 100 µM (inactive)
GI50 (OVCAR-8): > 100 µM (inactive)
GI50 (XF498): > 100 µM (inactive)
GI50 (HOP-18): > 100 µM (inactive)
GI50 (IGROV-1): > 100 µM (inactive)
GI50 (ACHN): > 100 µM (inactive)
GI50 (OVCAR-3): > 10 µM (inactive)
GI50 (UACC-62): > 100 µM (inactive)
